Experimental data taken from patent US8193238B2, “Inhibition of microtubule protrusion in cancer cells” (University of Maryland, Baltimore, priority 2006, dated 2012).
“Also recorded” adds a separate entry of the source.

Legend:
[1] = test system: detached mammary epithelial cells; test: Protrusions of detached mammary epithelial cells, general statements; format: cell-based, human and mouse
Description: Time-lapse video microscopy of detached mammary epithelial cells detected the extension of long, dynamic protrusions of the plasma membrane, and the present inventors have characterized the cytoskeletal mechanism underlying this novel observation. […] This response may be relatively short-lived, in specific embodiments, since mammary epithelial cells die by apoptosis within about 24 hours in suspension. However, cell lines that resist apoptosis through expression of either Bcl-2 or Bcl-xL will persistently form protrusions. Previous studies by the inventors indicate that such apoptotically-resistant cell lines will not form tumors in mice and lie dormant in distant tissues, in specific embodiments of the invention. […] These microtubule processes can extend more than 3 times the cell diameter, and undergo a rapid probing motion more than once per second. Formation of these microtubule protrusions is necessary for efficient cell-cell and cell-substratum attachment. In particular embodiments of the invention, this inherent microtubule response in detached mammary epithelial cells provides at least some of the invasive characteristics of breast cancer, independent of any tumor-specific genetic alteration, for example.
Breast tumor cells enter the bloodstream long before the development of clinically evident metastasis. However, the early presence of such bloodborne cells predicts poor patient outcome. Nearly 90% of human breast tumors arise as carcinomas from mammary epithelial cells, so it is important to characterize how these cells respond to the detached conditions that they would experience in the bloodstream. In the present invention, mammary epithelial cell lines produce long and dynamic protrusions of the plasma membrane when detached. Although human and mouse mammary epithelial cell lines die by apoptosis within 16 hours of detachment, this protrusive response persists for days in cells overexpressing either Bcl-2 or Bcl-xL, for example. […] Since bloodborne metastasis depends on both cell-cell and cell-matrix attachment, microtubule-based protrusions in detached mammary epithelial cells provide a novel target that could influence the metastatic spread of breast tumors.
Detachment-induced increases in Glu-tubulin could promote plasma membrane protrusions of microtubules by preventing efficient capture at the actin cortex. […] Therefore, our current model is that detachment increases stabilized microtubules enriched in Glu-tubulin, while decreased actin polymerization simply promotes extension of these microtubule protrusions.

MCF10A cells = test: Protrusions in suspended cells treated with cytoskeletal inhibitors (MCF10A); format: cell-based, human; design: protrusions counted with phase-contrast microscopy: dose or concentration left out as unconfirmed
Description: In FIG. 2A, after 15 minutes of suspension, protrusions in EpH4 and MCF10A cells are quite small (Control, white arrows). […] In FIG. 2B, populations of live, suspended cells were scored blindly for two or more protrusions longer than the cell radius. Each bar represents the mean+S.D. for three experiments in which at least 100 single cells were counted.
In order to initially characterize the cytoskeletal mechanism underlying these protrusions, suspended cells were treated with inhibitors of actin and tubulin polymerization (FIG. 2). After 15 minutes of suspension, the protrusions in untreated EpH4 or MCF10A cells remain fairly short (FIG. 2, white arrows). These early protrusions can often be difficult to detect with phase-contrast microscopy, due to interfering light refraction from the plasma membrane. […] Protrusions were more easily visible with immunofluorescence than phase contrast microscopy (FIG. 3, white arrows). Although actin filament staining was generally low along the length of the protrusion, dense points of actin were often found at the end of protrusions (FIG. 3, arrowheads).
The nontumorigenic human mammary epithelial cell line (MCF10A) or the indicated human breast tumor cell lines were grown in suspension for 30-60 minutes, and protrusions were counted in random fields with phase-contrast microscopy. Values represent the mean±S.D. of three experiments in which at least 100 cells were counted. […] This effect was most apparent in the highly metastatic but exemplary Bt-474 and MDA-MB-231 cells (pictured, black arrows). The exemplary MCF10A cells show far fewer and shorter protrusions at the same time point (pictured, white arrows). Such protrusions are not observed in attached cells.

Glu-tubulin = test: Western blotting of modified tubulin isoforms in attached or suspended cells; format: cell-based, mouse; details: for cellular levels of Glu-tubulin: EpH4-Bcl2, attached or detached, LA 5 μM
Description: EpH4-Bcl2 cells were grown attached to tissue culture dishes or suspended over agarose for the indicated times in either the absence or presence of LA (5 μM). In FIG. 5A, cell lysates were immunoblotted to detect levels of modified tubulin isoforms in the cell populations. In FIG. 5B, modified α-tubulin isoforms were normalized to total α-tubulin and then compared relative to the levels in attached cells at time zero. Bars represent the mean+S.E.M. of four independent experiments. […] Differences in Glu-tubulin upon detachment were also statistically-significant when compared to matched controls at time zero or one hour (black asterisks).
Whole cell lysates were prepared from EpH4 cells that were scraped or suspended in the presence or absence of 5 μM Latrunculin-A. Cells were pelleted at 3000 rpm×5 min and resuspended in lysis buffer (2% SDS, 100 mM Tris-HCl (pH 6.8), 20% Glycerol, 20 mM DTT, 1 mM phenylmethylsulfonyl fluoride, 1% protease inhibitor cocktail (Sigma, P2714)), and then immediately boiled for 10 min. Protein concentration was measured using a Lowry based assay (Bio-Rad, Hercules, Calif.). The amount of 17.5 μg of protein from each sample was separated by SDS-PAGE on 10% polyacrylamide gels and then transferred to Immuno-Blot PVDF membranes (Bio-Rad, Hercules, Calif.). The membrane was blocked in 2% milk in TBS with 0.1% Tween for 1 hr at room temperature followed by an overnight incubation at 4° C. in monoclonal α-tubulin (1:1000), tyrosinated tubulin (1:1000), acetylated tubulin (1:1000), and polyclonal detyrosinated tubulin (1:1000) in 1% milk in TBST. Secondary antibodies to IgG conjugated to horseradish peroxidase were used (1:5000; GE Healthcare, Piscataway, N.J.) and visualized using ECL chemiluminescent detection kit.
Immediately following detachment, levels of Glu-tubulin increase and remain elevated for at least 2 hours. […] The increased length and number of protrusions in response to LA may therefore reflect a decrease in an actin-dependent counteracting force, rather than a direct induction of protrusions.

C/C1=C/C(=O)O[C@@H]2C[C@@H](CC[C@H](C)/C=C\C=C\CC1)O[C@@](O)([C@@H]1CSC(=O)N1)C2 [Latrunculin-A]
protrusions [1]: enhanced; also recorded: promotes the extension of microtubule protrusions
protrusions counted with phase-contrast microscopy (MCF10A cells; MCF10A in suspension 30-60 minutes, LA): increases protrusions
protrusions (MCF10A cells; MCF10A, 15 minutes of suspension, Latrunculin-A 5 μM, Colchicine 1 μM, listed as latrunculin-A): significantly enhanced both the number and length of protrusions
total cellular levels of α-tubulin, tyrosinated or acetylated tubulin (Glu-tubulin; EpH4-Bcl2, LA treatment): remain unaffected
cellular levels of Glu-tubulin (Glu-tubulin): did not increase
cellular levels of Glu-tubulin (Glu-tubulin; listed as LA): not specifically increased; also recorded: does not significantly increase cellular levels of Glu-tubulin
